Laboratory results from patent US20240327787A1, “CULTURE MEDIUM, COATING MATRIX AND METHOD FOR EXPANDING MIDBRAIN DOPAMINERGIC PROGENITOR CELLS” (NUWACELL BIOTECHNOLOGIES CO., LTD., priority 2022, published 2024).
Counter-ions that a name gives are not always drawn.

System: imDAPs
Experiment: imDAP maturation, cell morphology and adhesion (bright-field)
Format: cell-based, human
Conditions: 10 μM Y27632; coating 1 μg/cm^2 for each; day 7
Procedure: were produced according to the method described in CN201910169525.0, and expanded as described in Example 10. The expanded […] were seeded on VTN-coated (1 μg/cm^2) plates at a density of 5×10^5 cells/cm^2 (Day 0), and cultured in the maturation medium ([…]) supplemented with 1 μM IWR1. MM-P used in Example 11 contained the following components: NeurobasalTM medium, 1% (v/v) Glutamax, 0.5 mM Db-cAMP sodium salt, 200 μM ascorbic acid, 20 ng/ml BDNF, 20 ng/ml GDNF, 1 ng/ml TGF-β3, 10 μM DAPT, hPLT (0.5%, 1%, 2%). MM-H used in Example 11 contained the following components: NeurobasalTM medium, 1% (v/v) Glutamax, 0.5 mM Db-cAMP sodium salt, 200 μM ascorbic acid, 20 ng/ml BDNF, 20 ng/ml GDNF, 1 ng/ml TGF-β3, […], HhPLT (0.5%, 1%, 2%). MM-B used in Example 11 contained the following components: Neurobasal, 1% (v/v) Glutamax, 0.5 mM Db-cAMP sodium salt, 200 μM ascorbic acid, 20 ng/ml BDNF, 20 ng/ml GDNF, 1 ng/ml TGF-β 3, 10 μM DAPT, 2% (v/v) B27 (50×) (as control). The above HhPLT was produced from hPLT as follows. The hPLT was centrifuged at 3000 g for 30 min at 4° C. to obtain the supernatant, which was heated to 56° C. for 30 min. […] Cells were collected and counted by Vi-cell cytometer. The cells were analyzed by RT-qPCR for EN1, LMX1A, FOXA2, NURR1, SOX6 and TH gene expression. […]

C[C@@H](N)[C@H]1CC[C@H](C(=O)Nc2ccncc2)CC1 [Y27632, (R)-(+)-trans-4-(1-aminoethyl)-N-(4-pyridyl) cyclohexanecarboxamide dihydrochloride]
cell adhesion and growth in maturation media supplemented with Y27632 (FIG. 8A): could promote cell adhesion at a certain degree
